The target in the first assay is T1, neuropeptide Y5 receptor (Homo sapiens, UniProt Q15761).
T1 construct: expressed in transfected cells; host or cells: CHO cells (membranes)
T1 sequence (Q15761 1-445): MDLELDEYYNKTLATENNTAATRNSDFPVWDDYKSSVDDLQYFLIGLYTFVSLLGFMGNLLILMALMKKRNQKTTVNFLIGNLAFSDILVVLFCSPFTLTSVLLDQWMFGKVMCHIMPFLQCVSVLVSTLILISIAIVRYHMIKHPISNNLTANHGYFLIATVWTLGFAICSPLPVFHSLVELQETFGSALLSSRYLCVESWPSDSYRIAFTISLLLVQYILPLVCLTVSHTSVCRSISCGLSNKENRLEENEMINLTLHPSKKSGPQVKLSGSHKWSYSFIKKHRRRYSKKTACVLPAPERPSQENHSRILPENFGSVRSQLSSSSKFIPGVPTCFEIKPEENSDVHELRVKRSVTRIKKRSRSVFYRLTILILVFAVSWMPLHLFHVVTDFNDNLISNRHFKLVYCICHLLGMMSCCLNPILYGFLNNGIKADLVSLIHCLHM
The assay is described as follows: NPY Receptor Binding Assay (125I-peptide YY, CHO cell membranes, neuropeptide Y5 receptor).
Settings: not given
The procedure: Human NPY receptors were expressed in CHO cells. Binding assays were performed in 50 mM HEPES, pH. […] Non-specific binding was determined in the presence of 1 uM NPY. The reaction mixtures were incubated for 90 minutes at 30° C. (NPY1 receptor) or at room temperature (NPY2, NPY4 and NPY5 receptors), then filtered through Millipore MAFC glass fiber filter plates which had been pre-soaked in 0.5% polyethyleneimine. The filters were washed with phosphate-buffered saline, and radioactivity was measured in a Packard TopCount scintillation counter.
`CN(C)C(=O)Nc1ccc(SC(C)(C)C)cc1` [Example 1M] returned a Ki of 152 nM.

Staying with this assay, now noted: neuropeptide Y5 receptor binding; 0.1 nM 125I-peptide YY; room temperature, 90 minutes; pH 7.2; r/h Y5; read-out: r/h Y5 Ki.
As for `CCCC(C)(C)Sc1ccc(NC(=O)C(C)(C)C)cc1` [Example 1], the Ki is 3 nM.
Same read-out and setting: under `CCCC(C)(C)Sc1ccc(NC(=O)NC2CCN(C)CC2)cc1` [Example 2Al] stands 697 nM.
Same read-out and setting: then `CCCC(C)(C)Sc1ccc(NC(=O)N(C)CCCN(C)C)cc1` [Example 2X], with 50 nM; and `CCCC(C)(C)Sc1ccc(NC(=O)C(C)(C)C)cc1F` [Example 3], with 9 nM; and `CCCC(C)(C)Oc1ccc(NC(=O)CC(C)(C)C)cc1` [Example 6C], with 668 nM.
As for `CCCCC1(Oc2ccc(NC(=O)N(C)c3ccccc3)cc2)CCCC1` [Example 6N], the Ki is 66 nM.
With `CCCC(C)(C)Oc1ccc(NC(=O)C(C)(C)C)cc1` [Example 6], the Ki came out at 13 nM.
Take `CCCC(C)(C)Sc1ccc(NC(=O)C(C)(C)N2CCN(c3ccccc3)CC2)cc1` [Example 8D]: the Ki stood at 18 nM.
Still for that read-out and setting: under `CCCC(C)(C)Sc1ccc(NC(=O)N(C)C2CCN(S(C)(=O)=O)CC2)cc1` [Example 13A] stands 0.8 nM; under `CCC(C)(C)CCc1ccc(NC(=O)N(C)CCc2ccncc2)cc1` [Example 19], 0.4 nM.

These data come from patent US6329395A, “Neuropeptide Y5 receptor antagonists” (Schering Corporation, priority 1999, dated 2001).
